18 compounds from patent US7238716B2, “Alkanoic acid derivatives process for their production and use thereof” (Takeda Pharmaceuticals Company Limited, priority 2000, dated 2007) can be followed below.

In one test the test system is KKAY mice. As to the kind of experiment: Hypoglycemic and hypolipidemic actions in mice (Test Example 1). It is filed as in vivo. The following applies: Mus musculus, po, 96 h, four days; for inhibition in vivo at 0.005 %: 0.005% in powdery diet; for inhibition in vivo at 0.01 %: 0.01% in powdery diet. The text has this:
Test compounds were mixed in a powdery diet (CE-2, Japan Clea) at the concentration of 0.01% (compounds of Examples 7, 26, 29, 32) or 0.005% (compounds of Examples 1, 11, 15, 18, 24, 36, 37, 41, 48, 50, 51, 52, 58, 62, 79, 83, 88, 90, 91, 92, 93, 97, 107, 110, 115, 119, 122, 125, 129 and 130), and freely given to KKAY mice (11 to 12 weeks old, 5 mice in a group), a model of type 2 diabetes mellitus, for four days. During this period, water was given freely. Blood was sampled from orbital venous plexus, and glucose and triglyceride levels in plasma separated from blood were determined enzymatically using L type Wako Glu2 (Wako Pure Chemical Industries, Ltd.) or L type Wako TG.H (Wako Pure Chemical Industries, Ltd.), respectively.
In the Table, “hypoglycemic action (%)” means a percent reduction (%) of the glucose level in the test compound administration group when that of the test compound non-administration group is taken as 100%. In addition, the “hypolipidemic action (%)” means a percent reduction (%) of the triglyceride level in the test compound administration group when that of the test compound non-administration group is taken as 100%.

Another test concerns KKA^y mice. As to the kind of experiment: Total cholesterol lowering action and plasma anti-arteriosclerosis index enhancing action in mice (Test Example 2). Conditions: Mus musculus, po, 96 h, four days; for change in vivo at 0.005 % / change in vivo at 0.01 %: percent increase of [(HDL cholesterol/total cholesterol)×100] vs non-administration group; for change in vivo at 0.005 % / inhibition in vivo at 0.005 %: 0.005% in powdery diet; for inhibition in vivo at 0.005 % / inhibition in vivo at 0.01 %: percent reduction of plasma total cholesterol level vs non-administration group; for change in vivo at 0.01 % / inhibition in vivo at 0.01 %: 0.01% in powdery diet. It is filed as in vivo. The source says: Test compounds were mixed in a powdery diet (CE-2, Japan Clea) the concentration of 0.01% (compounds of Examples 7, 26, 29 and 32) or 0.005% (compounds of Examples 1, 11, 15, 18, 24, 36, 37, 41, 48, 50, 51, 52, 58, 62, 79, 88, 91, 92, 93, 97, 107, 110, 129 and 130), and freely given to KKA^y mice (11 to 12 weeks old, 5 mice per group), a model of type-2 diabetes mellitus, for four days. During this period, water was given freely. Blood was sampled from orbital venous plexus and components were analyzed using the plasma separated from the blood. Total cholesterol levels were determined by using L type Wako Cholesterol (Wako Pure Chemical Industries, Ltd). Precipitation reagent for HDL cholesterol (Wako Pure Chemical Industries, Ltd.) was added to a part of the plasma to precipitate non-HDL lipoprotein, and cholesterol (HDL cholesterol) in the resulting supernatant was determined. The plasma anti-arteriosclerosis index [(HDL cholesterol/total cholesterol)×100] was calculated by using these cholesterol levels.
In the Table, “Total cholesterol lowering action (%)” represents the percent reduction (%) of total cholesterol level in the test compound administration group, when the total cholesterol level in the test compound non-administration group is taken as 100%. “Plasma anti-arteriosclerosis index-enhancing action (%)” represents the percent increase (%) of plasma anti-arteriosclerosis index in the test compound administration group, when the plasma anti-arteriosclerosis index in the test compound non-administration group is taken as 100%.

The mark [1] stands for this setting: percent reduction of plasma glucose level vs non-administration group, read-out: hypoglycemic action (%).
Where [2] appears, read: percent reduction of plasma triglyceride level vs non-administration group, read-out: hypolipidemic action (%).

Like-named read-outs stand apart in the source and are kept apart here.

Take `Cc1oc(-c2ccccc2)nc1COc1ccc(COc2cccc(CC(=O)O)c2)cc1` [Example 1, 2-[3-[4-[(5-methyl-2-phenyl-4-oxazolyl)methoxy]benzyloxy]phenyl]acetic acid]: the results for the inhibition in vivo at 0.005 % in the test with KKAY mice (setting [1]), in the test with KKAY mice (setting [2]) and with KKA^y mice were 21%, 33% and 7%, respectively. Besides, the change in vivo at 0.005 % with KKA^y mice was 11%.

With `CCOc1ccc(OCc2ccc(OCc3nc(-c4ccccc4)oc3C)cc2)cc1CCC(=O)O` [Example 7, 3-[2-ethoxy-5-[4-[(5-methyl-2-phenyl-4-oxazolyl)methoxy]benzyloxy]phenyl]propionic acid], the inhibition in vivo at 0.01 % was 48% in the test with KKAY mice (setting [1]), 62% with KKAY mice (setting [2]) and 17% in the test with KKA^y mice. For the same compound, the change in vivo at 0.01 % with KKA^y mice stood at 15%.

As to `Cc1oc(-c2ccccc2)nc1COc1ccc(COc2ccccc2CC(=O)O)cc1` [Example 11, 2-[2-[4-[(5-methyl-2-phenyl-4-oxazolyl)methoxy]benzyloxy]phenyl]acetic acid], the inhibition in vivo at 0.005 % worked out at 56% with KKAY mice (setting [1]), 84% in the test on KKAY mice (setting [2]) and 23% in the test on KKA^y mice. Besides, the change in vivo at 0.005 % in the test with KKA^y mice came out at 18%.

In the case of `Cc1ccc(OCc2ccc(OCc3nc(-c4ccccc4)oc3C)cc2)c(CC(=O)O)c1` [Example 15, 2-[5-methyl-2-[4-[(5-methyl-2-phenyl-4-oxazolyl)methoxy]benzyloxy]phenyl]acetic acid], the inhibition in vivo at 0.005 % in the test with KKAY mice (setting [1]) came out at 49%; with KKAY mice (setting [2]), 60%; with KKA^y mice, 25%. In addition, the change in vivo at 0.005 % in the test on KKA^y mice was 4%.

Take `Cc1oc(-c2ccccc2)nc1COc1ccc(COc2ccc(Cl)cc2CC(=O)O)cc1` [Example 18, 2-[5-chloro-2-[4-[(5-methyl-2-phenyl-4-oxazolyl)methoxy]benzyloxy]phenyl]acetic acid]: the inhibition in vivo at 0.005 % in the test on KKAY mice (setting [1]) turned out to be 41%; in the test with KKAY mice (setting [2]) it was 34%; in the test on KKA^y mice, 23%. Also, the change in vivo at 0.005 % in the test on KKA^y mice is 12%.

With `COc1ccc(OCc2ccc(OCc3nc(-c4ccccc4)oc3C)cc2)c(CC(=O)O)c1` [Example 24, 2-[5-methoxy-2-[4-[(5-methyl-2-phenyl-4-oxazolyl)methoxy]benzyloxy]phenyl]acetic acid], the inhibition in vivo at 0.005 % with KKAY mice (setting [1]) was found to be 49%; in the test on KKAY mice (setting [2]), 67%; in the test with KKA^y mice, 10%. Further, the change in vivo at 0.005 % with KKA^y mice was 17%.

Take `CCOc1ccc(OCc2ccc(OCc3nc(-c4ccccc4)oc3C)cc2)c(CC(=O)O)c1` [Example 26, 2-[5-ethoxy-2-[4-[(5-methyl-2-phenyl-4-oxazolyl)methoxy]benzyloxy]phenyl]acetic acid]: the inhibition in vivo at 0.01 % came to 53% in the test with KKAY mice (setting [1]), 88% with KKAY mice (setting [2]) and 20% in the test with KKA^y mice. The change in vivo at 0.01 % in the test with KKA^y mice came to 16%.

Take `CCOc1ccc(OCc2ccc(OCc3nc(-c4ccccc4)oc3C)cc2)c(CCC(=O)O)c1` [Example 29, 3-[5-ethoxy-2-[4-[(5-methyl-2-phenyl-4-oxazolyl)methoxy]benzyloxy]phenyl]propionic acid]: the values for the inhibition in vivo at 0.01 % with KKAY mice (setting [1]), in the test on KKAY mice (setting [2]) and in the test with KKA^y mice were 58%, 67% and 21%, respectively. Besides, the change in vivo at 0.01 % in the test with KKA^y mice was determined as 20%.

Take `Cc1oc(-c2ccccc2)nc1COc1cccc(COc2cccc(CC(=O)O)c2)c1` [Example 32, 2-[[3-[3-(5-methyl-2-phenyl-4-oxazolyl)methoxy]benzyloxy]phenyl]acetic acid]: the inhibition in vivo at 0.01 % with KKAY mice (setting [1]) is 40%; with KKAY mice (setting [2]), 53%; in the test on KKA^y mice it was 2%. Moreover, the change in vivo at 0.01 % in the test on KKA^y mice is 10%.

On to `Cc1oc(-c2ccccc2)nc1COc1ccc(COc2ncccc2CC(=O)O)cc1` [Example 36, 2-[2-[4-[(5-methyl-2-phenyl-4-oxazolyl)methoxy]benzyloxy]-3-pyridyl]acetic acid], for which the figures for the inhibition in vivo at 0.005 % with KKAY mice (setting [1]), in the test with KKAY mice (setting [2]) and in the test on KKA^y mice were 55%, 71% and 19%, respectively. The change in vivo at 0.005 % in the test on KKA^y mice stood at 34%.

In the case of `Cc1oc(-c2ccccc2)nc1COc1ccc(COc2cccnc2CC(=O)O)cc1` [Example 37, 2-[3-[4-[(5-methyl-2-phenyl-4-oxazolyl)methoxy]benzyloxy]-2-pyridyl]acetic acid], the results for the inhibition in vivo at 0.005 % in the test with KKAY mice (setting [1]), in the test on KKAY mice (setting [2]) and with KKA^y mice were 50%, 61% and 15%, respectively. The change in vivo at 0.005 % with KKA^y mice is 19%.

Regarding `Cc1oc(-c2ccccc2)nc1COc1ccc(COc2ccccc2CC(=O)O)cn1` [Example 41, 2-[2-[[6-[(5-methyl-2-phenyl-4-oxazolyl)methoxy]-3-pyridyl]methoxy]phenyl]acetic acid], the inhibition in vivo at 0.005 % in the test on KKAY mice (setting [1]) amounted to 48%; in the test with KKAY mice (setting [2]), 93%; in the test with KKA^y mice, 25%. The change in vivo at 0.005 % with KKA^y mice stood at 28%.

With `COc1cc(COc2ccccc2CC(=O)O)ccc1OCc1nc(-c2ccccc2)oc1C` [Example 48, 2-[2-[3-methoxy-4-[(2-phenyl-5-methyl-4-oxazolyl)methoxy]benzyloxy]phenyl]acetic acid], the inhibition in vivo at 0.005 % amounted to 53% in the test with KKAY mice (setting [1]), 50% in the test with KKAY mice (setting [2]) and 17% with KKA^y mice. In addition, the change in vivo at 0.005 % with KKA^y mice came out at 20%.

Consider `Cc1oc(-c2ccco2)nc1COc1ccc(COc2ccccc2CC(=O)O)cc1` [Example 50, 2-[2-[4-[[2-(2-furyl)-5-methyl-4-oxazolyl]methoxy]benzyloxy]phenyl]acetic acid], for which the inhibition in vivo at 0.005 % with KKAY mice (setting [1]) worked out at 54%; in the test with KKAY mice (setting [2]), 77%; in the test on KKA^y mice, 20%. The change in vivo at 0.005 % in the test with KKA^y mice came to 15%.

Take `O=C(O)Cc1ccccc1OCc1ccc(OCc2csc(-c3ccccc3)n2)cc1` [Example 51, 2-[2-[4-[(2-phenyl-4-thiazolyl)methoxy]benzyloxy]phenyl]acetic acid]: the inhibition in vivo at 0.005 % with KKAY mice (setting [1]) is 55%; with KKAY mice (setting [2]), 79%; in the test on KKA^y mice, 24%. In the test on KKA^y mice, the change in vivo at 0.005 % turned out to be 22%.

On to `Cc1sc(-c2ccccc2)nc1COc1ccc(COc2ccccc2CC(=O)O)cc1` [Example 52, 2-[2-[4-[(5-methyl-2-phenyl-4-thiazolyl)methoxy]benzyloxy]phenyl]acetic acid], for which the results for the inhibition in vivo at 0.005 % in the test on KKAY mice (setting [1]), in the test on KKAY mice (setting [2]) and with KKA^y mice were 56%, 61% and 26%, respectively. Further, the change in vivo at 0.005 % in the test with KKA^y mice was found to be 15%.

For `Cc1oc(-c2ccccc2)nc1CCOc1ccc(COc2ccccc2CC(=O)O)cc1` [Example 58, 2-[2-[4-[2-(5-methyl-2-phenyl-4-oxazolyl)ethoxy]benzyloxy]phenyl]acetic acid], the inhibition in vivo at 0.005 % in the test on KKAY mice (setting [1]) stood at 57%; in the test on KKAY mice (setting [2]), 75%; in the test on KKA^y mice, 20%. In addition, the change in vivo at 0.005 % with KKA^y mice came to 21%.

For the compound `Cc1oc(-c2ccccc2)nc1COc1cc(COc2cccc(CC(=O)O)c2)ccn1` [Example 62, 2-[3-[2-[(5-methyl-2-phenyl-4-oxazolyl)methoxy]-4-pyridylmethoxy]phenyl]acetic acid], the inhibition in vivo at 0.005 % in the test on KKAY mice (setting [1]) came out at 47%; in the test with KKAY mice (setting [2]), 44%; in the test with KKA^y mice, 9%. Also, in the test with KKA^y mice, the change in vivo at 0.005 % was found to be 15%.
